Measurements from ChEMBL document CHEMBL5154747, “Discovery of new carbonic anhydrase IX inhibitors as anticancer agents by toning the hydrophobic and hydrophilic rims of the active site to encounter the dual-tail approach” (Eur J Med Chem, 2022).

Assays:
A549 = assay: Anticancer activity against human A549 cells assessed as cell growth inhibition at 10 uM incubated for 48 hrs by SRB assay relative to control; type: functional; conditions: read-out: GI
SK-MEL-5 = assay: Anticancer activity against human SK-MEL-5 cells assessed as cell growth inhibition at 10 uM incubated for 48 hrs by SRB assay relative to control; type: functional; conditions: read-out: GI
SR = assay: Anticancer activity against human SR cells assessed as cell growth inhibition at 10 uM incubated for 48 hrs by SRB assay relative to control; type: functional; conditions: read-out: GI
SW-620 = assay: Anticancer activity against human SW-620 cells assessed as cell growth inhibition at 10 uM incubated for 48 hrs by SRB assay relative to control; type: functional; conditions: read-out: GI
NCI/ADR-RES = assay: Anticancer activity against human NCI/ADR-RES cells assessed as cell growth inhibition at 10 uM incubated for 48 hrs by SRB assay relative to control; type: functional; conditions: read-out: GI
LOX IMVI = assay: Anticancer activity against human LOX IMVI cells assessed as cell growth inhibition at 10 uM incubated for 48 hrs by SRB assay relative to control; type: functional; conditions: read-out: GI
ACHN = assay: Anticancer activity against human ACHN cells assessed as cell growth inhibition at 10 uM incubated for 48 hrs by SRB assay relative to control; type: functional; conditions: read-out: GI
SF-268 = assay: Anticancer activity against human SF-268 cells assessed as cell growth inhibition at 10 uM incubated for 48 hrs by SRB assay relative to control; type: functional; conditions: read-out: GI
MDA-MB-435 = assay: Anticancer activity against human MDA-MB-435 cells assessed as cell growth inhibition at 10 uM incubated for 48 hrs by SRB assay relative to control; type: functional; conditions: read-out: GI
NCI-H23 = assay: Anticancer activity against human NCI-H23 cells assessed as cell growth inhibition at 10 uM incubated for 48 hrs by SRB assay relative to control; type: functional; conditions: read-out: GI
MCF7 = assay: Anticancer activity against human MCF7 cells assessed as cell growth inhibition at 10 uM incubated for 48 hrs by SRB assay relative to control; type: functional; conditions: read-out: GI
HT-29 = assay: Anticancer activity against human HT-29 cells assessed as cell growth inhibition at 10 uM incubated for 48 hrs by SRB assay relative to control; type: functional; conditions: read-out: GI
HCT-116 = assay: Anticancer activity against human HCT-116 cells assessed as cell growth inhibition at 10 uM incubated for 48 hrs by SRB assay relative to control; type: functional; conditions: read-out: GI
HOP-92 = assay: Anticancer activity against human HOP-92 cells assessed as cell growth inhibition at 10 uM incubated for 48 hrs by SRB assay relative to control; type: functional; conditions: read-out: GI
UACC-257 = assay: Anticancer activity against human UACC-257 cells assessed as cell growth inhibition at 10 uM incubated for 48 hrs by SRB assay relative to control; type: functional; conditions: read-out: GI
MDA-MB-231 = assay: Anticancer activity against human MDA-MB-231 cells assessed as cell growth inhibition at 10 uM incubated for 48 hrs by SRB assay relative to control; type: functional; conditions: read-out: GI
HCT-15 = assay: Anticancer activity against human HCT-15 cells assessed as cell growth inhibition at 10 uM incubated for 48 hrs by SRB assay relative to control; type: functional; conditions: read-out: GI
SN12C = assay: Anticancer activity against human SN12C cells assessed as cell growth inhibition at 10 uM incubated for 48 hrs by SRB assay relative to control; type: functional; conditions: read-out: GI
KM12 = assay: Anticancer activity against human KM12 cells assessed as cell growth inhibition at 10 uM incubated for 48 hrs by SRB assay relative to control; type: functional; conditions: read-out: GI
SK-OV-3 = assay: Anticancer activity against human SK-OV-3 cells assessed as cell growth inhibition at 10 uM incubated for 48 hrs by SRB assay relative to control; type: functional; conditions: read-out: GI
HCC 2998 = assay: Anticancer activity against human HCC 2998 cells assessed as cell growth inhibition at 10 uM incubated for 48 hrs by SRB assay relative to control; type: functional; conditions: read-out: GI
CAKI-1 = assay: Anticancer activity against human CAKI-1 cells assessed as cell growth inhibition at 10 uM incubated for 48 hrs by SRB assay relative to control; type: functional; conditions: read-out: GI
Hs-578T = assay: Anticancer activity against human Hs-578T cells assessed as cell growth inhibition at 10 uM incubated for 48 hrs by SRB assay relative to control; type: functional; conditions: read-out: GI
UO-31 = assay: Anticancer activity against human UO-31 cells assessed as cell growth inhibition at 10 uM incubated for 48 hrs by SRB assay relative to control; type: functional; conditions: read-out: GI
CCRF-CEM = assay: Anticancer activity against human CCRF-CEM cells assessed as cell growth inhibition at 10 uM incubated for 48 hrs by SRB assay relative to control; type: functional; conditions: read-out: GI
RPMI-8226 = assay: Anticancer activity against human RPMI-8226 cells assessed as cell growth inhibition at 10 uM incubated for 48 hrs by SRB assay relative to control; type: functional; conditions: read-out: GI
T47D = assay: Anticancer activity against human T47D cells assessed as cell growth inhibition at 10 uM incubated for 48 hrs by SRB assay relative to control; type: functional; conditions: read-out: GI
NCI-H522 = assay: Anticancer activity against human NCI-H522 cells assessed as cell growth inhibition at 10 uM incubated for 48 hrs by SRB assay relative to control; type: functional; conditions: read-out: GI
NCI-H460 = assay: Anticancer activity against human NCI-H460 cells assessed as cell growth inhibition at 10 uM incubated for 48 hrs by SRB assay relative to control; type: functional; conditions: read-out: GI
SNB-75 = assay: Anticancer activity against human SNB-75 cells assessed as cell growth inhibition at 10 uM incubated for 48 hrs by SRB assay relative to control; type: functional; conditions: read-out: GI
A498 = assay: Anticancer activity against human A498 cells assessed as cell growth inhibition at 10 uM incubated for 48 hrs by SRB assay relative to control; type: functional; conditions: read-out: GI
SF-539 = assay: Anticancer activity against human SF-539 cells assessed as cell growth inhibition at 10 uM incubated for 48 hrs by SRB assay relative to control; type: functional; conditions: read-out: GI
IGROV-1 = assay: Anticancer activity against human IGROV-1 cells assessed as cell growth inhibition at 10 uM incubated for 48 hrs by SRB assay relative to control; type: functional; conditions: read-out: GI
OVCAR-3 = assay: Anticancer activity against human OVCAR-3 cells assessed as cell growth inhibition at 10 uM incubated for 48 hrs by SRB assay relative to control; type: functional; conditions: read-out: GI
Malme-3M = assay: Anticancer activity against human Malme-3M cells assessed as cell growth inhibition at 10 uM incubated for 48 hrs by SRB assay relative to control; type: functional; conditions: read-out: GI
PC-3 = assay: Anticancer activity against human PC-3 cells assessed as cell growth inhibition at 10 uM incubated for 48 hrs by SRB assay relative to control; type: functional; conditions: read-out: GI
MDA-MB-468 = assay: Anticancer activity against human MDA-MB-468 cells assessed as cell growth inhibition at 10 uM incubated for 48 hrs by SRB assay relative to control; type: functional; conditions: read-out: GI
NCI-H226 = assay: Anticancer activity against human NCI-H226 cells assessed as cell growth inhibition at 10 uM incubated for 48 hrs by SRB assay relative to control; type: functional; conditions: read-out: GI
SK-MEL-2 = assay: Anticancer activity against human SK-MEL-2 cells assessed as cell growth inhibition at 10 uM incubated for 48 hrs by SRB assay relative to control; type: functional; conditions: read-out: GI
Carbonic anhydrase 9 = Carbonic anhydrase 9 (Homo sapiens, UniProt Q16790); assay: Inhibition of recombinant human CA 9 preincubated for 15 mins by phenol red dye based stopped flow CO2 hydration assay

| Structure (SMILES) | inhibition of growth at 10 µM (A549) | inhibition of growth at 10 µM (SK-MEL-5) | inhibition of growth at 10 µM (SR) | inhibition of growth at 10 µM (SW-620) | inhibition of growth at 10 µM (NCI/ADR-RES) | inhibition of growth at 10 µM (LOX IMVI) | inhibition of growth at 10 µM (ACHN) | inhibition of growth at 10 µM (SF-268) | inhibition of growth at 10 µM (MDA-MB-435) | inhibition of growth at 10 µM (NCI-H23) | inhibition of growth at 10 µM (MCF7) | inhibition of growth at 10 µM (HT-29) | inhibition of growth at 10 µM (HCT-116) | inhibition of growth at 10 µM (HOP-92) | inhibition of growth at 10 µM (UACC-257) | inhibition of growth at 10 µM (MDA-MB-231) | inhibition of growth at 10 µM (HCT-15) | inhibition of growth at 10 µM (SN12C) | inhibition of growth at 10 µM (KM12) | inhibition of growth at 10 µM (SK-OV-3) | also measured |
| --- | --- | --- | --- | --- | --- | --- | --- | --- | --- | --- | --- | --- | --- | --- | --- | --- | --- | --- | --- | --- | --- |
| NS(=O)(=O)c1ccc(Nc2nc(N/N=C/c3ccc4c(c3)OCO4)nc(Nc3ccccc3)n2)cc1 | 25% | 45% | 79% | 50% | < 10% | 73% | 42% | 57% | 40% | 74% | 81% | 59% | 63% | 33% | 15% | 40% | 17% | 45% | 29% | 34% | inhibition of growth at 10 µM (HCC 2998): 76%; inhibition of growth at 10 µM (CAKI-1): 54%; inhibition of growth at 10 µM (Hs-578T): 47%; inhibition of growth at 10 µM (UO-31): 23%; inhibition of growth at 10 µM (CCRF-CEM): 83%; inhibition of growth at 10 µM (RPMI-8226): 45%; inhibition of growth at 10 µM (T47D): 45%; inhibition of growth at 10 µM (NCI-H522): 39%; inhibition of growth at 10 µM (NCI-H460): 97%; inhibition of growth at 10 µM (SNB-75): 46%; inhibition of growth at 10 µM (A498): 48%; inhibition of growth at 10 µM (SF-539): 83%; inhibition of growth at 10 µM (IGROV-1): 63%; inhibition of growth at 10 µM (OVCAR-3): 51%; inhibition of growth at 10 µM (Malme-3M): 41%; inhibition of growth at 10 µM (PC-3): 40%; inhibition of growth at 10 µM (MDA-MB-468): 53%; inhibition of growth at 10 µM (NCI-H226): 34%; inhibition of growth at 10 µM (SK-MEL-2): 44%; Ki (Carbonic anhydrase 9): 0.0293 µM |
| CN(C)c1ccc(/C=N/Nc2nc(Nc3ccccc3)nc(Nc3ccc(S(N)(=O)=O)cc3)n2)cc1 | 26% | 14% | 29% | 17% | < 10% | 31% | 15% | 10% | 11% | 13% | 40% | 43% | 45% | < 10% | < 10% | 13% | 20% | 22% | 33% | < 10% | inhibition of growth at 10 µM (HCC 2998): < 10%; inhibition of growth at 10 µM (CAKI-1): < 10%; inhibition of growth at 10 µM (Hs-578T): 37%; inhibition of growth at 10 µM (UO-31): 15%; inhibition of growth at 10 µM (CCRF-CEM): 53%; inhibition of growth at 10 µM (RPMI-8226): 52%; inhibition of growth at 10 µM (T47D): 52%; inhibition of growth at 10 µM (NCI-H522): 20%; inhibition of growth at 10 µM (NCI-H460): < 10%; inhibition of growth at 10 µM (SNB-75): 12%; inhibition of growth at 10 µM (A498): 14%; inhibition of growth at 10 µM (SF-539): 59%; inhibition of growth at 10 µM (IGROV-1): 28%; inhibition of growth at 10 µM (OVCAR-3): 14%; inhibition of growth at 10 µM (Malme-3M): 25%; inhibition of growth at 10 µM (PC-3): 38%; inhibition of growth at 10 µM (MDA-MB-468): 14%; inhibition of growth at 10 µM (NCI-H226): 21%; inhibition of growth at 10 µM (SK-MEL-2): 18%; Ki (Carbonic anhydrase 9): 0.0133 µM |
